Data taken from US7034019B2, “Prodrugs of HIV replication inhibiting pyrimidines” (Janssen Pharmaceutica N.V., priority 2000, dated 2006).

Key:
HIV [1] = assay: anti-HIV activity in MT-4 cells (MTT, HIV-induced cytopathic effect), prior to incubation; format: cell-based; conditions: Human immunodeficiency virus 1, MT4; prior to incubation in subcellular liver fractions; HIV-infected MT-4 cells; read-out: IC50 before
Experimental: (§1) The metabolism of the present compounds was studied in subcellular liver fractions (1200×g) of rat, dog or human. The compounds were incubated at a final […] concentration of 30 μM; incubations were performed up to 120 minutes at a final protein concentration equivalent to 1 mg/ml microsomal proteins. Reactions were stopped by the addition of an equal volume (2 ml) of […]. Samples were stored at ≦−18° C. until analysis. […] Table 2 lists IC50 values prior to and after incubation in subcellular liver fractions.
(§2) A rapid, sensitive and automated assay procedure was used for the in vitro evaluation of anti-HIV agents. […] The viability of both HIV- and mock-infected cells was assessed spectrophotometrically via the in situ reduction of 3-(4,5-dimethylthiazol-2-yl)-2,5-diphenyltetrazolium bromide (MTT). […] The percent protection achieved by the compound in HIV-infected cells was calculated by the following formula:
(§3) [formula] whereby (ODT)HIV is the optical density measured with a given concentration of the test compound in HIV-infected cells; (ODC)HIV is the optical density measured for the control untreated HIV-infected cells; (ODC)MOCK is the optical density measured for the control untreated mock-infected cells; all optical density values were determined at 540 nm. […]

HIV [2] = assay: anti-HIV activity (MT-4/MTT) of incubates after incubation in rat subcellular liver fractions; format: cell-based; conditions: Human immunodeficiency virus 1, MT4, 2 h; after incubation in rat subcellular liver fraction, 120 minutes; MT-4 cells
Experimental: as §1, §2, §3

HIV [3] = assay: anti-HIV activity (MT-4/MTT) of incubates after incubation in dog subcellular liver fractions; format: cell-based; conditions: Human immunodeficiency virus 1, MT4, 2 h; after incubation in dog subcellular liver fraction, 120 minutes; MT-4 cells
Experimental: as §1, §2, §3

HIV [4] = assay: anti-HIV activity (MT-4/MTT) of incubates after incubation in human subcellular liver fractions; format: cell-based; conditions: after incubation in human subcellular liver fraction, MT-4 cells
Experimental: as §1, §2, §3

CCOCN(c1ccc(C#N)cc1)c1ncc(Br)c(Oc2c(C)cc(C#N)cc2C)n1 [Compound 1]
IC50 (HIV [1]): > 1000 nM
IC50 (HIV [2]): 175 nM
IC50 (HIV [3]): 138 nM
IC50 (HIV [4]; Human immunodeficiency virus 1, MT4, 0.5 h, 30 minutes): 293 nM
IC50 (HIV [4]; Human immunodeficiency virus 1, MT4, 2 h, 120 minutes): 165 nM
melting point: 181 to 182 °C

Cc1cc(C#N)cc(C)c1Oc1nc(N(COCCO)c2ccc(C#N)cc2)ncc1Br [Compound 3]
IC50 (HIV [1]): > 1000 nM
IC50 (HIV [3]): 809 nM
melting point: 199 to 200 °C
